Measurements: publication PMC8151276, “An Integrated Approach toward NanoBRET Tracers for Analysis of GPCR Ligand Engagement” (Molecules, 2021)

What was measured:
Format in all cases: binding
VIPR2 = target: T1, VIPR2 (Homo sapiens, UniProt P41587); assay: NanoBRET screen HiBiT-VIPR2 in HEK293; details: VIPR2
T1 construct: purchased Promega (in-house HiBiT-GPCR construct library, NanoBRET)
T1 sequence (P41587 24-438): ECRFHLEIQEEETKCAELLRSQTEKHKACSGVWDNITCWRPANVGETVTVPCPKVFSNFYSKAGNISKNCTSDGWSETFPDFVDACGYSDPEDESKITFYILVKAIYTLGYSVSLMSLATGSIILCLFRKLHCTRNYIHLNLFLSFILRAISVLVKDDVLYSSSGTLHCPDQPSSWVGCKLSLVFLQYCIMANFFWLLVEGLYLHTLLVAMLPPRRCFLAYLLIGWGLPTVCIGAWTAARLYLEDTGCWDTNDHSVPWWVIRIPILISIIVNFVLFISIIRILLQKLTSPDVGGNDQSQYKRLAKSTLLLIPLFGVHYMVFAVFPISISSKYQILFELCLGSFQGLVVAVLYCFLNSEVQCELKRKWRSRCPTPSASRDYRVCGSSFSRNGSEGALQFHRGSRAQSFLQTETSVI
Protocol: (§1) Each tracer candidate was screened across the entire library of HiBiT-GPCR constructs using NanoBRET as the detection modality. As depicted in Figure 4A, the specificity of interactions was evaluated through decrease in BRET due to competitive displacement of a bound tracer by excess parental compound. Each tracer was analyzed for binding to each HiBiT-GPCR fusion in the absence and in the presence of competing parental compound. Briefly, HEK293 cells were transfected with HiBiT-GPCR constructs diluted into promoterless DNA to reduce expression and maximize translocation to the cell surface. Each tracer candidate was then screened at concentrations of 1 μM and 0.1 μM across cells expressing these fusions. Cells were treated for 1.5 h with tracer either alone or in the presence of 20 μM competing parental compound (i.e., control). BRET was measured upon addition of purified LgBiT and subsequent complementation with HiBiT genetically fused to a GPCR. The specificity of interactions was assessed through a decrease in BRET signal due to competitive displacement of the bound tracer. To further gauge the robustness of these interactions, the fold response over the control (i.e., BRETtracer/BRETcontrol) was calculated. We chose a 1.5-fold response, which translates to ≥7-fold signal over noise as the minimal threshold required to score an interaction as positive. […]. Below we highlight the screening results obtained for our exemplary fluorescent tracers based on Clozapine, Amitriptyline and AZD1283.
(§2) HiBiT-GPCR DNA constructs were diluted in 10 mM Tris pH 8 to a final concentration of 0.01 μg/μL, arrayed in 96-well plates and stored at −20 °C. For transfection, HEK293 cells were suspended in Opti-MEM (without phenol red) supplemented with 2% fetal bovine serum (Seradigm) and 100 units/mL penicillin–streptomycin (Gibco) at a final concentration of 220,000 cells/mL and dispensed into white 96-well plates at 90 μL/well. Subsequent transfections and screens were carried using an Agilent Bravo Automated Liquid Handling Platform. First, the 96-well HiBiT DNA arrays were diluted 25-fold in Opti-MEM (without serum or phenol red) to a final concentration of 0.0004 μg/μL and 20 μL of the diluted DNAs were transferred into new 96-well plates. Next, promoterless carrier DNA (1 μg/μL) was diluted 25-fold (0.04 μg/μL) and then dispensed into the diluted arrays at 20 μL/well. Following brief mixing, Viafect transfection reagent (Promega) diluted 16-fold into Opti-MEM was dispensed into the plates at 40 μL/well. After mixing by pipetting, plates were incubated for 10 min on the pipetting station deck. The DNA-transfection reagent complexes were then added to plates containing cells. To facilitate the screen, 10 μL of DNA-transfection reagent complexes were added in duplicates to the top 4 and bottom 4 rows, resulting in two identical 48-well arrays per plate. Plates with transfected cells were incubated for 18–20 h at 37 °C/5% CO2. A screen of each tracer across the entire library using two different concentrations requires duplicate plates of transfected cells. Depending on the number of tracers being screened, transfections can be scaled up using the same ratios. The next day, for each tracer, four 20× screening solutions in tracer dilution buffer (Promega) were prepared: two duplicates at final concentration of 20 μM and two duplicates at a final concentration of 2 μM. A competing unmodified compound was added to one of each duplicate at a final concentration of 400 μM. The four resulting solutions were diluted 4-fold in Opti-MEM without serum or phenol red to generate 5× solutions (5 µM and 0.5 µM tracer +/− 100 μM competing compound). To screen the library, a BioTek MultiFlo FX liquid dispenser was used to dispense 22.5 µL of tracer solution to the top 4 rows and 22.5 µL tracer + competing compound solution to the 4 bottom rows. Plates were briefly mixed on an orbital shaker and incubated for 1.5 h at room temperature. […]

GRM5 = target: T2, GRM5 (Homo sapiens, UniProt P41594); assay: NanoBRET screen HiBiT-GRM5 in HEK293; details: GRM5
T2 construct: purchased Promega (in-house HiBiT-GPCR construct library, NanoBRET)
T2 sequence (P41594 21-1212): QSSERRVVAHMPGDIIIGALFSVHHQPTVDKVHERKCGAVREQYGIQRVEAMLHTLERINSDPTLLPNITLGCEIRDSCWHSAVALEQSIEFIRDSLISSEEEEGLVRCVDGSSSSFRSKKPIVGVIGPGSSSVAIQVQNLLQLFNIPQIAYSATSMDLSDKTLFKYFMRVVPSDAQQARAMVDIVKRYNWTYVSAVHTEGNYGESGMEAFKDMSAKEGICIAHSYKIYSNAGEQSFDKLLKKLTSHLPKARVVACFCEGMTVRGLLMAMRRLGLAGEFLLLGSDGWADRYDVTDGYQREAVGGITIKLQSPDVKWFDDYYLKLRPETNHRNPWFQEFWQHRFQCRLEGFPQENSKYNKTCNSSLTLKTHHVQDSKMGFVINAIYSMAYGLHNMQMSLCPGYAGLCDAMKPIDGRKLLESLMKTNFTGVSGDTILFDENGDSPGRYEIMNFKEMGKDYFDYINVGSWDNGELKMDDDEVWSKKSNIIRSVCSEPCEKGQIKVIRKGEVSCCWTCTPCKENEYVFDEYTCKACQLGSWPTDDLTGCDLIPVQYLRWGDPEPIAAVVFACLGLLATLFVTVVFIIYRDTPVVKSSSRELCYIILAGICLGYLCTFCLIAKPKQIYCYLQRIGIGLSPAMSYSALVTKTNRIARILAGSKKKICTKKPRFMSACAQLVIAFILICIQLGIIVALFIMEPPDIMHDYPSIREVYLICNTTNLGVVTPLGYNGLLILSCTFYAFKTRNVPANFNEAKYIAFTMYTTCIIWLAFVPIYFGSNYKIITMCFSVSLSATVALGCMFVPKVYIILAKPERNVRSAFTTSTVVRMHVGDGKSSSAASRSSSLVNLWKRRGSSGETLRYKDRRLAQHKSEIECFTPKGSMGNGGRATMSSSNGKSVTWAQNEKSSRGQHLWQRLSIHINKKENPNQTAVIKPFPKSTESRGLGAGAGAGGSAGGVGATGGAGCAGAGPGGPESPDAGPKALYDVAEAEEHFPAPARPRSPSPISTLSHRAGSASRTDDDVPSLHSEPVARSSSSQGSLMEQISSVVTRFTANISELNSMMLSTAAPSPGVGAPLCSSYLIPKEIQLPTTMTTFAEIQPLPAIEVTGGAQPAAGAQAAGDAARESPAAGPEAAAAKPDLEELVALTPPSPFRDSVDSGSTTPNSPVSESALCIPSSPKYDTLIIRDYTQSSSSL
Protocol: as §1, §2

LGR6 = target: T3, LGR6 (Homo sapiens, UniProt Q9HBX8); assay: NanoBRET screen HiBiT-LGR6 in HEK293; details: LGR6
T3 construct: purchased Promega (in-house HiBiT-GPCR construct library, NanoBRET)
T3 sequence (Q9HBX8 25-967): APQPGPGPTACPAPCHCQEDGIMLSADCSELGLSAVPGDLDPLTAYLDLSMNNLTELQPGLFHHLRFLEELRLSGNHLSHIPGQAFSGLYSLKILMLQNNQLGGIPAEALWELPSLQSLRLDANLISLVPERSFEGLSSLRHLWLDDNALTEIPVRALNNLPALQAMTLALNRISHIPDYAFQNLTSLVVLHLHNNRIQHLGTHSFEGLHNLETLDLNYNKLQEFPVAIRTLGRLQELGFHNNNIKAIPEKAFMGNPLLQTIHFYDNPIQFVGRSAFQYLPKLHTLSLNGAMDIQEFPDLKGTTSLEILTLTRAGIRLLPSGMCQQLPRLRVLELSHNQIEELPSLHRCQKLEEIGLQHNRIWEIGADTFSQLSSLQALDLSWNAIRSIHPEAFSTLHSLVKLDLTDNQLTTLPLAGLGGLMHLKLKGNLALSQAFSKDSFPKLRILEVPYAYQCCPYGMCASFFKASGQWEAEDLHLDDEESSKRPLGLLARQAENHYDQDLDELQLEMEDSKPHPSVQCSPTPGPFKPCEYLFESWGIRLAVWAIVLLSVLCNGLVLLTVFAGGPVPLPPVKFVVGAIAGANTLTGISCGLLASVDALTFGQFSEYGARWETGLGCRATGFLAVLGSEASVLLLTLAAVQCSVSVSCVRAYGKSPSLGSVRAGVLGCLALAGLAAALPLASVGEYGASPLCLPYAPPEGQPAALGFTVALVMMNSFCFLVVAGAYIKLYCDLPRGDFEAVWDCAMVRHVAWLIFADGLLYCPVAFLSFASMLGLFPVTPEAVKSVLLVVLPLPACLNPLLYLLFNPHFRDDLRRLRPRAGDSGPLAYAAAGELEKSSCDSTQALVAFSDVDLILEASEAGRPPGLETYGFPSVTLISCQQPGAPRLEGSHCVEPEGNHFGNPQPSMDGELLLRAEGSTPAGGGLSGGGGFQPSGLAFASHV
Protocol: as §1, §2

For `O=C(CCc1ccc2n1[B-](F)(F)[N+]1=C(c3ccc[nH]3)C=CC1=C2)NCc1ccc(C(=O)NCCOCCC(=O)N[C@@H]2CC[C@@]3(O)[C@H]4Cc5ccc(O)c6c5[C@@]3(CCN4CC3CC3)[C@H]2O6)cc1` [Naltrexone-3-NB590], the “NanoBRET Fold Response” value (VIPR2; tracer 0.1μM) was 1.17, the “NanoBRET Fold Response” value (VIPR2; tracer 1μM) was 1.05 and the “NanoBRET Fold Response” value (GRM5; tracer 0.1μM) was 1.25. For the same compound, the “NanoBRET Fold Response” value (GRM5; tracer 1μM) was 1.14, the “NanoBRET Fold Response” value (LGR6; tracer 0.1μM) was 1.22 and the “NanoBRET Fold Response” value (LGR6; tracer 1μM) was 0.79.
With `Cc1cc2c(s1)Nc1ccccc1N=C2N1CCN(CCCNC(=O)CCOCCOCCOCCOCCNC(=O)CCc2ccc3n2[B-](F)(F)[N+]2=C(c4ccc[nH]4)C=CC2=C3)CC1` [Olanzapine-a-2-NB590] the “NanoBRET Fold Response” value (VIPR2; tracer 0.1μM) was 1.00, the “NanoBRET Fold Response” value (VIPR2; tracer 1μM) was 1.05 and the “NanoBRET Fold Response” value (GRM5; tracer 0.1μM) was 0.95. The “NanoBRET Fold Response” value (GRM5; tracer 1μM) was 0.97, the “NanoBRET Fold Response” value (LGR6; tracer 0.1μM) was 1.09 and the “NanoBRET Fold Response” value (LGR6; tracer 1μM) was 1.22.
In the case of `O=C(CCc1ccc2n1[B-](F)(F)[N+]1=C(c3ccc[nH]3)C=CC1=C2)NCc1ccc(C(=O)NCCOCCOCCNCC(O)COc2cccc3ccccc23)cc1` (stereo not drawn) [Propranolol-3-NB590], the “NanoBRET Fold Response” value (VIPR2; 0.1μM) is reported as 0.95, the “NanoBRET Fold Response” value (VIPR2; 1μM) is reported as 1.03 and the “NanoBRET Fold Response” value (GRM5; 0.1μM) is reported as 1.04. The “NanoBRET Fold Response” value (GRM5; 1μM) was 1.02, the “NanoBRET Fold Response” value (LGR6; 0.1μM) was 1.26 and the “NanoBRET Fold Response” value (LGR6; 1μM) was 1.01.
In the case of `O=C(CCc1ccc2n1[B-](F)(F)[N+]1=C(c3ccc[nH]3)C=CC1=C2)NCCOCCOCCNC(=O)OCCOCCN1CCN(C2=Nc3ccccc3Sc3ccccc32)CC1` [Quetiapine-a-2-NB590], the “NanoBRET Fold Response” value (VIPR2; tracer 0.1μM) is reported as 0.96, the “NanoBRET Fold Response” value (VIPR2; tracer 1μM) is reported as 0.96 and the “NanoBRET Fold Response” value (GRM5; tracer 0.1μM) is reported as 1.08. The “NanoBRET Fold Response” value (GRM5; tracer 1μM) was 1.05, the “NanoBRET Fold Response” value (LGR6; tracer 0.1μM) was 0.93 and the “NanoBRET Fold Response” value (LGR6; tracer 1μM) was 0.96.
With `Cc1nc2n(c(=O)c1CCN1CCC(c3noc4cc(F)ccc34)CC1)CCCC2OC(=O)NCCOCCOCCOCCOCCNC(=O)CCc1ccc2n1[B-](F)(F)[N+]1=C(c3ccc[nH]3)C=CC1=C2` (stereo not drawn) [Risperidone-2-NB590] the “NanoBRET Fold Response” value (VIPR2; tracer 0.1μM) was 1.03, the “NanoBRET Fold Response” value (VIPR2; tracer 1μM) was 0.91 and the “NanoBRET Fold Response” value (GRM5; tracer 0.1μM) was 0.98. The “NanoBRET Fold Response” value (GRM5; tracer 1μM) was 1.02, the “NanoBRET Fold Response” value (LGR6; tracer 0.1μM) was 1.04 and the “NanoBRET Fold Response” value (LGR6; tracer 1μM) was 1.02.
`CC(C)N(CC[C@H](c1ccccc1)c1cc(CCNC(=O)CCOCCOCCOCCOCCNC(=O)CCc2ccc3n2[B-](F)(F)[N+]2=C(c4ccc[nH]4)C=CC2=C3)ccc1O)C(C)C` [Tolterodine-2-NB590] was tested, and the “NanoBRET Fold Response” value (VIPR2; tracer 0.1μM) was 0.98, the “NanoBRET Fold Response” value (VIPR2; tracer 1μM) was 1.04 and the “NanoBRET Fold Response” value (GRM5; tracer 0.1μM) was 0.99. For the same compound, the “NanoBRET Fold Response” value (GRM5; tracer 1μM) was 0.87, the “NanoBRET Fold Response” value (LGR6; tracer 0.1μM) was 1.39 and the “NanoBRET Fold Response” value (LGR6; tracer 1μM) was 1.36.
`CC(C)N(CC[C@H](c1ccccc1)c1cc(CCNC(=O)c2ccc(CNC(=O)CCc3ccc4n3[B-](F)(F)[N+]3=C(c5ccc[nH]5)C=CC3=C4)cc2)ccc1O)C(C)C` [Tolterodine-BZ-NB590] was tested, and the “NanoBRET Fold Response” value (VIPR2; tracer 0.1μM) was 0.98, the “NanoBRET Fold Response” value (VIPR2; tracer 1μM) was 1.07 and the “NanoBRET Fold Response” value (GRM5; tracer 0.1μM) was 1.00. The “NanoBRET Fold Response” value (GRM5; tracer 1μM) was 1.05, the “NanoBRET Fold Response” value (LGR6; tracer 0.1μM) was 1.31 and the “NanoBRET Fold Response” value (LGR6; tracer 1μM) was 0.94.
`CCCn1c(=O)c2[nH]c(-c3ccc(OCC(=O)NCCNC(=O)CCOCCNC(=O)c4ccc(CNC(=O)CCc5ccc6n5[B-](F)(F)[N+]5=C(c7ccc[nH]7)C=CC5=C6)cc4)cc3)nc2n(CCC)c1=O` [XAC-3-NB590] was tested, and the “NanoBRET Fold Response” value (VIPR2; tracer 0.1μM) was 0.72, the “NanoBRET Fold Response” value (VIPR2; tracer 1μM) was 0.91 and the “NanoBRET Fold Response” value (GRM5; tracer 0.1μM) was 1.01. The “NanoBRET Fold Response” value (GRM5; tracer 1μM) was 0.98, the “NanoBRET Fold Response” value (LGR6; tracer 0.1μM) was 0.99 and the “NanoBRET Fold Response” value (LGR6; tracer 1μM) was 0.90.
